Data on 1 compound can be found in patent publication US7135494B2, “Antitumoral carbazoles” (Pharma Mar, S.A., priority 2000, dated 2006).

Common to all, as to assay type: cell-based
The test system of one assay is P388 leukemia cell line. Put plainly: SRB colorimetric assay of cell growth and viability, P388. Particulars: Mus musculus. As for the experimental part: (§1) Biological tests were carried out on coproverdine (the compound of Example 1 of the present application). A colorimetric type of assay, using sulforhodamine B (SRB) reaction, was used to provide a quantitative measurement of cell growth and viability. The technique described by Skehan, et al., J Natl. Cancer Inst., 1990, 82, 1107, was followed. The reader is also referred to the following references: • Faircloth et al. Journal of Tissue and Culture Methods, 1988, 11, 201. • Monks et al. Articles, 1991, 83, 757. • Mosmann et al. Journal of Immunological Methods, 1983, 65, 55.
(§2) Further biological tests were carried out on coproverdine using similar methods. The results are given using the following cellular response parameters: GI=growth inhibition, TGI=total growth inhibition (cytostatic effect) and LC=cell killing (cytotoxic effect).
In general terms: Sulforhodamine B stains cellular protein and so reports cell mass.

A further assay relates to Colon (HT-29). Put plainly: SRB colorimetric assay of cell growth and viability, HT-29. On the procedure: as §1, §2
In another assay the test system is Prostate (DU-145). The assay can be described thus: SRB colorimetric assay of cell growth and viability, DU-145. To be noted: Homo sapiens, 24 wells/16 mm, 10,000 cells/72 h, read-out: IC50 (concentration that causes 50% growth inhibition). On the procedure: as §1, §2
In another assay the test system is Melanoma (MEL-28). Put plainly: SRB colorimetric assay of cell growth and viability, MEL-28. Particulars: Homo sapiens, SK-MEL-28, 24 wells/16 mm, 10,000 cells/72 h, read-out: IC50 (concentration that causes 50% growth inhibition). On the procedure:
as §1, §2

A further assay concerns Lung (A-549). The assay can be described thus: SRB colorimetric assay of cell growth and viability, A-549. On the procedure:
as §1, §2

Where [1] appears, read: 96 wells/9 mm, 5,000 cells/48 h.

Where two headings read alike, the source gives them in different places.

The term GI50 denotes the concentration giving 50% growth inhibition.

As for `COC(=O)c1cccc2c3c(n(O)c12)C(O)(C=O)C=CC3=O` (stereo not drawn) [coproverdine, 8-formyl-8,9-dihydroxy-5-oxo-8,9-dihydro-5H-carbazole-1-carboxylic acid methyl ester], the IC50 in the assay on P388 leukemia cell line (P388, Leukemia (P-388), 24 wells/16 mm, 10,000 cells/72 h, read-out: IC50 (concentration that causes 50% growth inhibition)) was 1.6 µM; with P388 leukemia cell line (P388 leukemia cell line, first test, read-out: IC50) it was 0.95 µg/mL; in the assay with Colon (HT-29) (Homo sapiens, 24 wells/16 mm, 10,000 cells/72 h, read-out: IC50 (concentration that causes 50% growth inhibition)), 0.3 µM; in the assay on Prostate (DU-145) it was 0.3 µM; in the assay with Melanoma (MEL-28) it was 0.3 µM; with Lung (A-549) (Homo sapiens, A549, 24 wells/16 mm, 10,000 cells/72 h, read-out: IC50 (concentration that causes 50% growth inhibition)) it was 0.3 µM. In addition, the “TGI (total growth inhibition, cytostatic effect)” value with Colon (HT-29) (setting [1]) worked out at 16 µM; with Lung (A-549) (setting [1]) it was 15 µM. Also, the 50% growth inhibitory concentration (GI50) with Colon (HT-29) (Homo sapiens, 96 wells/9 mm, 5,000 cells/48 h, read-out: GI50 (50% growth inhibition with correction for cell OD at time zero)) came out at 6 µM; in the assay on Lung (A-549) (Homo sapiens, A549, 96 wells/9 mm, 5,000 cells/48 h, read-out: GI50 (50% growth inhibition with correction for cell OD at time zero)), 7 µM. Also, the CC50 in the assay with Colon (HT-29) (Homo sapiens, 96 wells/9 mm, 5,000 cells/48 h, read-out: LC50 (50% cell killing, cytotoxic effect)) was 50 µM; in the assay with Lung (A-549) (Homo sapiens, A549, 96 wells/9 mm, 5,000 cells/48 h, read-out: LC50 (50% cell killing, cytotoxic effect)), 50 µM.
